One may read the Cmax as the peak of the concentration-time curve. In general, Tmax refers to the time from dosing to the highest level. Usually IC50 stands for the concentration needed to halve the response being measured. Broadly, the AUC is the area under the concentration-time curve, a measure of exposure. The low end stands for low exposure, the high end for high exposure.

Data on 29 compounds can be found in ChEMBL document CHEMBL4382193, “Discovery of Potent Irreversible Pan-Fibroblast Growth Factor Receptor (FGFR) Inhibitors” (J Med Chem, 2018).

Data set [1] can be described thus: Cmax in Sprague-Dawley rat at 10 mg/kg, po administered via gavage by HPLC-MS/MS analysis. The format is ADME, organism-based. Further details: dose 10 mg/kg, route oral. Conditions: in vivo.
The nature of data set [2]: Terminal half life in Sprague-Dawley rat at 10 mg/kg, po administered via gavage by HPLC-MS/MS analysis. The format is ADME, organism-based. Particulars: in vivo, read-out: beta t1/2 (converted).
The nature of data set [3]: Tmax in Sprague-Dawley rat at 10 mg/kg, po administered via gavage by HPLC-MS/MS analysis. The format is ADME, organism-based. Particulars: in vivo.
For the next data set, the system named is NCI-H1581. The data set can be described thus: cells. Particulars: Homo sapiens, NCI-H1581, 72 h.
The nature of data set [4]: AUC in Sprague-Dawley rat at 10 mg/kg, po administered via gavage by HPLC-MS/MS analysis. Type of data set: ADME, organism-based. Conditions: in vivo.
Data set [5] deals with Fibroblast growth factor receptor 4 (Homo sapiens, UniProt P22455). Briefly: Inhibition of recombinant FGFR4 (unknown origin) using poly (Glu,Tyr) 4:1 as substrate after 60 mins by ELISA. For orientation: ELISA stands for enzyme-linked immunosorbent assay.
Chain of Fibroblast growth factor receptor 4 (P22455 whole entry): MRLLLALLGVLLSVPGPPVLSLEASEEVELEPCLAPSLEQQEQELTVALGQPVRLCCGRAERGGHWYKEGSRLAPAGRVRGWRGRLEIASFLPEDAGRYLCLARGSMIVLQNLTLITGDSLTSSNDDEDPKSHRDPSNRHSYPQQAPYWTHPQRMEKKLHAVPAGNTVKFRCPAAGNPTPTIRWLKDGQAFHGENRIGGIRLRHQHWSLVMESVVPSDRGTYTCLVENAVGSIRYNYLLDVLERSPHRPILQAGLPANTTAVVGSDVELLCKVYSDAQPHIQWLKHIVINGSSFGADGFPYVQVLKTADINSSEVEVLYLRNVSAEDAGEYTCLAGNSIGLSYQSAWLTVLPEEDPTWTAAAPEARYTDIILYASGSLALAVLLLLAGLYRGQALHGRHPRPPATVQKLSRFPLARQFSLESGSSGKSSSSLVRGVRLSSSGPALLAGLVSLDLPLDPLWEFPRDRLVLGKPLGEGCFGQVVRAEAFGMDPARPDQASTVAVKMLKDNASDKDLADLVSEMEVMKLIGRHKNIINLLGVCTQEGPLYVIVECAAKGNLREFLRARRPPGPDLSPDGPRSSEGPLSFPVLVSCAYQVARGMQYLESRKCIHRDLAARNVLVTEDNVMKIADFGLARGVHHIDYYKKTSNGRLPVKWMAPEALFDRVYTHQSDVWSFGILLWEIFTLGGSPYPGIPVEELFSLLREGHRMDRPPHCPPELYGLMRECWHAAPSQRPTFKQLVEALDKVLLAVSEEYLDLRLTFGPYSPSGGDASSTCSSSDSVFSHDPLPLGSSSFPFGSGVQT
Data set [6] addresses Fibroblast growth factor receptor 1 (Homo sapiens, UniProt P11362).
Description: Inhibition of recombinant FGFR1 (unknown origin) using poly (Glu,Tyr) 4:1 as substrate after 60 mins by ELISA
A further data set has as its system Huh-7. Briefly: cells. Conditions: Homo sapiens, Huh-7, 72 h.
The test system of data set [7] is BaF3. The data set can be described thus: cells. Conditions: Mus musculus, BaF3, 72 h.
Description: Antiproliferative activity against mouse BAF3 cells expressing TEL-fused FGFR4 kinase after 72 hrs by CCK8 or MTT assay
In another data set the test system is RT-112. Briefly: cells. Particulars: Homo sapiens, RT-112, 72 h.
Another data set deals with OPM-2. The data set can be described thus: cells. Particulars: Homo sapiens, OPM-2, 72 h.
Data set [8] concerns BaF3. The data set can be described thus: cells. Particulars: Mus musculus, BaF3, 72 h. This is another data set of the same source.
Description: Antiproliferative activity against mouse BAF3 cells expressing TEL-fused KDR kinase after 72 hrs by CCK8 or MTT assay

Chain of Fibroblast growth factor receptor 1 (P11362 whole entry): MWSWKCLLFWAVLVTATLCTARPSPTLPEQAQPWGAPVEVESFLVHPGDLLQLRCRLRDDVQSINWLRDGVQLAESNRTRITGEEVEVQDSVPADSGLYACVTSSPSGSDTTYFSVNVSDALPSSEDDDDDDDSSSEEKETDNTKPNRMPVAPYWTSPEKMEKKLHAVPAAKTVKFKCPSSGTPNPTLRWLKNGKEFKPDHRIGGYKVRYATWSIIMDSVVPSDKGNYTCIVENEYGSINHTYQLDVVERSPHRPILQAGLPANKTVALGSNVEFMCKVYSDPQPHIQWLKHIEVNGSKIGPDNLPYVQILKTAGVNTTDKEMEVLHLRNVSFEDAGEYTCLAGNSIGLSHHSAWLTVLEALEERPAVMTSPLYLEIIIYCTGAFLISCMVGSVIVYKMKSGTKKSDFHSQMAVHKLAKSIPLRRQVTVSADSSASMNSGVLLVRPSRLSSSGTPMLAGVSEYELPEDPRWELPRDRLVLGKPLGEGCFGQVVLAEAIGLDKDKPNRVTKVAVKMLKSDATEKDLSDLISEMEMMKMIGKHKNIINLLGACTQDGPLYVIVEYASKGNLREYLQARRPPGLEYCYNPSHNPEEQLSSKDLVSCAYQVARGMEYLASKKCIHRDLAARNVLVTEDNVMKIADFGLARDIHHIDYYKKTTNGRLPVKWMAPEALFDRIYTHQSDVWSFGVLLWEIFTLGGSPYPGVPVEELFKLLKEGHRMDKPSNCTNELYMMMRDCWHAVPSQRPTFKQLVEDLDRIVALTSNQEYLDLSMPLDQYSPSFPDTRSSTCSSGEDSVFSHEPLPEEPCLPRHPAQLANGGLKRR
Description for Huh-7: Antiproliferative activity against FGF19/FGFR4 expressing human HuH7 cells after 72 hrs by CCK8 or MTT assay
Description for NCI-H1581: Antiproliferative activity against FGFR1 amplified human NCI-H1581 cells after 72 hrs by CCK8 or MTT assay
Description for OPM-2: Antiproliferative activity against FGFR3 amplified human OPM2 cells after 72 hrs by CCK8 or MTT assay
Description for RT-112: Antiproliferative activity against FGFR3 amplified human RT112 cells after 72 hrs by CCK8 or MTT assay

Turning to `C=CC(=O)N1CC(n2cc(-c3cc4cc(C)cc(OC)c4s3)c3c(N)ncnc32)C1`, the Cmax in data set [1] was determined as 0.012 µg/mL. In addition, the half-life in data set [2] was 2.11 h. In addition, in data set [3], the Tmax is 1.67 h. This compound showed an IC50 in the data set on NCI-H1581 of less than 0.0003 µM. Moreover, in data set [4], the AUC was 0.0464 µg·h/mL.
For `C=CC(=O)N1CC(n2cc(-c3cc4c(OC)ccc(OC)c4s3)c3c(N)ncnc32)C1`, the IC50 in the data set with NCI-H1581 was 0.0159 µM.
Consider `C=CC(=O)N1CCC(n2cc(-c3cc(OC)cc(OC)c3)c3c(N)ncnc32)C1` (stereo unspecified), for which half-maximal inhibition with NCI-H1581 (IC50) required 0.0902 µM.
As to `C=CC(=O)N1CCC(n2cc(-c3cc4cccc(OC)c4s3)c3c(N)ncnc32)C1` (stereo unspecified), the IC50 in the data set on NCI-H1581 was less than 0.0003 µM.
Consider `COc1cc(C)cc2cc(-c3cn(C4CCN(C(=O)/C=C/CN(C)C)C4)c4ncnc(N)c34)sc12` (stereo unspecified), for which the IC50 in the data set with NCI-H1581 is less than 0.0003 µM.
Take `C=CC(=O)N1CCC(n2cc(-c3cc4cc(C)cc(OC)c4s3)c3c(NC)ncnc32)C1` (stereo unspecified): the IC50 in data set [5] and in data set [6] was greater than 0.1 µM in each case.
Compound `C=CC(=O)N1CCC(n2cc(-c3cc4cc(C)cc(OC)c4s3)c3c(N)ncnc32)CC1` showed an IC50 in the data set on NCI-H1581 of less than 0.0003 µM.
Consider `C=CC(=O)N1CC(n2cc(-c3cc4ccccc4s3)c3c(N)ncnc32)C1`, for which, in the data set with NCI-H1581, the IC50 worked out at 0.17 µM.
In the case of `C=CC(=O)N1CC(n2cc(-c3cc4cc(C)cc(OC)c4o3)c3c(N)ncnc32)C1`, in data set [5], the half-inhibitory concentration (IC50) was greater than 1 µM.
The compound `C=C(CN(C)C)C(=O)N1CCC(n2cc(-c3cc4cc(C)cc(OC)c4s3)c3c(N)ncnc32)C1` (stereo unspecified) yielded an IC50 with NCI-H1581 of less than 0.0003 µM.
Regarding `C=CC(=O)N1CCC(n2cc(-c3cc4cc(C)cc(OC)c4s3)c3c(N)nc(C)nc32)C1` (stereo unspecified), the IC50 in the data set with NCI-H1581 is 0.254 µM.
Regarding `C=CC(=O)N1CCCC1Cn1cc(-c2cc3cc(C)cc(OC)c3s2)c2c(N)ncnc21` (stereo unspecified), the IC50 in the data set on NCI-H1581 is less than 0.0003 µM.
With `C=CC(=O)N1CCC(n2cc(-c3cc4cc(C)cc(OC)c4s3)c3c(N)nc(N)nc32)C1` (stereo unspecified), 0.0257 µM corresponded to half-maximal inhibition in the data set on NCI-H1581 (IC50).
Compound `C=CC(=O)N1CC(n2cc(-c3cc4cc(OC)ccc4s3)c3c(N)ncnc32)C1` returned an IC50 in the data set on NCI-H1581 of 0.0381 µM.
For the compound `COc1cc(CCc2cc(NC(=O)c3ccc(N4C[C@@H](C)N[C@@H](C)C4)cc3)n[nH]2)cc(OC)c1` [FEXAGRATINIB], the IC50 with Huh-7 stood at 0.284 µM; in the data set on BaF3 [7] it was 0.339 µM; in the data set on RT-112 it was 0.0364 µM; in the data set on OPM-2, 0.0836 µM; with BaF3 [8] it was 0.543 µM.
Take `C=CS(=O)(=O)N1CC(n2cc(-c3cc4cc(C)cc(OC)c4s3)c3c(N)ncnc32)C1`: the IC50 was less than 0.0003 µM in data set [6] and greater than 1 µM in the data set with NCI-H1581.
The compound `C#CC(=O)N1CCC(n2cc(-c3cc4cc(C)cc(OC)c4s3)c3c(N)ncnc32)C1` (stereo unspecified) gave an IC50 in the data set with NCI-H1581 greater than 1 µM.
Compound `C=CC(=O)NC1CCC(n2cc(-c3cc4cc(C)cc(OC)c4s3)c3c(N)ncnc32)CC1` (stereo unspecified) yielded an IC50 with NCI-H1581 of 0.0679 µM.
The same measure, in the same setting: the figure for `C=CC(=O)N1CC(n2cc(-c3cc4ccc(OC)cc4s3)c3c(N)ncnc32)C1` is 0.0861 µM.
For `C=CC(=O)N1CCC(n2cc(-c3cc4cc(C)cc(OC)c4s3)c3c(N)ncnc32)C1` (stereo unspecified), the values for the 50% inhibitory concentration (IC50) (in data set [5]; in data set [6]; with NCI-H1581) were 0.0062 µM, less than 0.0003 µM and less than 0.0003 µM, respectively.
The compound `C=CC(=O)N1CC(n2cc(-c3cc4cccc(OC)c4s3)c3c(N)ncnc32)C1` registered an IC50 in the data set with NCI-H1581 of less than 0.0003 µM.
For `CCN1CCN(c2ccc(Nc3cc(N(C)C(=O)Nc4c(Cl)c(OC)cc(OC)c4Cl)ncn3)cc2)CC1` [INFIGRATINIB], the IC50 in the data set with Huh-7 is 0.0572 µM; with BaF3 [7], 0.133 µM; in the data set on RT-112, less than 0.0005 µM; in the data set on BaF3 [8] it was 3.34 µM.
Turning to `C=CC(=O)N1CC[C@@H](n2cc(-c3cc4cc(C)cc(OC)c4s3)c3c(N)ncnc32)C1`, the IC50 in data set [5] was determined as 0.0827 µM; in [6], 0.0006 µM; in the data set with NCI-H1581, 0.0217 µM.
In turn, `C=CC(=O)N1CC(n2cc(-c3cc4cc(C)cc(OC)c4s3)c3c(N)nc(Cl)nc32)C1` registered a 50% inhibitory concentration (IC50) in the data set on NCI-H1581 of 0.207 µM.
Still for that read-out and setting: with `C=CC(=O)N1CCC(n2cc(-c3cc4cccc(C)c4s3)c3c(N)ncnc32)C1` (stereo unspecified) the figure was less than 0.0003 µM; with `CCC(=O)N1CCC(n2cc(-c3cc4cc(C)cc(OC)c4s3)c3c(N)ncnc32)C1` (stereo unspecified), 0.0497 µM.
`C=CC(=O)N1CCCC(n2cc(-c3cc4cc(C)cc(OC)c4s3)c3c(N)ncnc32)C1` (stereo unspecified): the half-maximal inhibitory concentration (IC50) in the data set with NCI-H1581 is 0.227 µM.
Regarding `C=CC(=O)NCCn1cc(-c2cc3cc(C)cc(OC)c3s2)c2c(N)ncnc21`, the IC50 in the data set on NCI-H1581 came out at 0.255 µM.
On the same count and under the same terms, with `C=CC(=O)N1CCC(n2cc(-c3cc4cc(OC)cc(OC)c4s3)c3c(N)ncnc32)C1` (stereo unspecified) the figure was less than 0.0003 µM.
